Laboratory results taken from patent US20060160095A1, “Survivin” (EiRx Therapeutics Limited, priority 2002, published 2006).

Tests used:
Neutrophils = assay: Neutrophil survival with BAL or GM-CSF after antisense/missense oligonucleotides (Example 7); format: cell-based, human; conditions: oligonucleotides 0 to 10 μM
Procedure: Neutrophils are purified as normal and resuspended in culture medium (RPMI+10% FCS) to give a final conc. of 2×10^6/ml. Five hundred microlitres are added to each well of a 24 well plate, to give a final concentration of 1×10^6/well.
Either antisense or missense oligonucleotides are added directly to each well over a range of concentrations between 0 μM to 10 μM.
Cells are then incubated for time intervals between 15 mins to 8 hours. Bronchoalveolar lavage (BAL) fluid, obtained from patients with chronic inflammation, including cystic fibrosis, chronic obstructive pulmonary disease or healthy controls, is then added to each well. As a positive control for increased survival, neutrophils are treated with GM-CSF (0 to 20 units).
Neutrophil apoptosis is measured as described in Example 1.

Survivin mRNA = assay: LifeGrid microarray of Survivin transcripts in neutrophils; format: cell-based, human; conditions: gliotoxin added in the presence of GM-CSF
Procedure: Primary human neutrophils are isolated and purified from peripheral blood of normal healthy individuals using standard techniques. Neutrophils are resuspended in serum containing culture medium together with GM-CSF (50 U) at a concentration of 2×10^6/ml, and cultured for 0 h (control), 2 h, 4 h and 6 h at 37° C. Total RNA is then prepared from both groups using acid phenol/guanidine isothiocyanate extraction (RNAzol B; Biogenesis), or RNeasy RNA preparation kits (Qiagen). Any contaminating genomic DNA is removed by DNase treatment (DNase I, Gibco-BRL). […]
This example describes the use of a STORM Phosphoimager to quantitatively image positive signals across the filter arrays. […]
The captured image file is then analysed using software such as Array Vision (Imaging Research Inc.; See FIG. 5). […] This program contains facilities for spot detection and quantification, and background detection and quantification. […] As the data is imported to the database, a Normalisation factor is calculated and the sDENs values modified accordingly. […] A normalization factor may be derived from Linear Regression calculated by reference to housekeeping genes. Alternatively, the Global Mean is calculated as the average of the sDens values across all of the arrays to be compared and a normalisation factor is then derived by division of the overall spot density with the Global Mean value. […]

[1] = system: Primary human neutrophils; assay: MTT survival assay of neutrophils cultured with GM-CSF, with or without gliotoxin; format: cell-based
Procedure: Primary human neutrophils are isolated and purified from peripheral blood of normal healthy individuals. Neutrophils are resuspended in serum containing culture medium together with various amounts of GM-CSF at a density of 2×10^6/ml, with 100 μl plated into a 96 well plate and cultured for 18 h at 37° C. After this time 10 μl of MTT (5 mg/ml) is added to the cultures and incubated for a further 4 h at 37° C. before solubilisation of the purple coloured formazan with acidic isopropanol. Optical densities are read at 570 nm using a plate reader.
Primary human neutrophils are isolated and purified from peripheral blood of normal healthy individuals. Neutrophils are resuspended in serum containing culture medium containing 5 U/ml of GM-CSF at a concentration of 2×10^6/ml. […] After the indicated time, 10 μl of MTT (5 mg/ml) are added to the cultures and incubated for a further 4 h at 37° C. before solubilisation of the purple coloured formazan with acidic isopropanol. Optical densities are read at 570 nm using a plate reader.

HL60 cells = assay: DNA fragmentation by agarose gel electrophoresis in differentiated HL60 cells; format: cell-based; conditions: 10 μM Retinoic acid
Procedure: HL60 cells are seeded at 5×10^6cells in T25 flasks and incubated with 10 μM Retinoic acid for 24, 48, 72, 96, 120 and 144 hrs. Mock treated HL-60 cells were used as a control. Cellular DNA was analysed for fragmentation into oligonucleosomal-size fragments and their multiples by agarose gel electrophoresis. Lanes 1,3,5,7,9,11 contain DNA from HL-60 cells that were differentiated with 10 μM Retinoic Acid over the indicated period whereas samples in lanes 2,4,6,8,10,12,14 are from control HL-60 cells treated for the same time period. Lane 15 is a 1 Kb Plus Ladder Molecular Marker.

For “5′-CCCAgCCTTCCAgCTCCTTg-3′ (antisense 5'-CCCAgCCTTCCAgCTCCTTg-3'; as printed in the source, key not given here) [antisense Survivin oligonucleotides]”, the “survival of neutrophils treated with BAL” value (Neutrophils; BAL derived from patients with chronic inflammation) was “inhibits the survival” and the “survival of neutrophils treated with control cytokine GM-CSF” value (Neutrophils; GM-CSF as control cytokine) was “inhibits the survival”.
`CN1C(=O)[C@]23CC4=CC=C[C@H](O)[C@H]4N2C(=O)[C@@]1(CO)SS3` [gliotoxin, Gliotoxin] was tested, and the “Increased expression of Survivin following GM-CSF treatment” value (Survivin mRNA) was “blocked”, the “block of the GM-CSF inhibition of neutrophil apoptosis (MTT)” value ([1]; 0.1 μg/ml added with 5 U/ml GM-CSF) was “effectively blocks” and the “neutrophil apoptosis with the compound alone (MTT)” value ([1]; added alone to isolated neutrophils, no GM-CSF) was “No increased neutrophil apoptosis”.
For `CC1=C(/C=C/C(C)=C/C=C/C(C)=C/C(=O)O)C(C)(C)CCC1` [retinoic acid, Retinoic acid], the “onset of apoptosis after differentiation” value (HL60 cells) was about 4 days.
